Counter-ions that a name gives are not always drawn. ± gives the uncertainty stated by the source. Where only a bound is given, the exact number is not on record here.

Experiment [1] deals with Klebsiella pneumoniae ATCC 13882. The experiment is described as follows: rate of pH (A557-A630) increase, Gompertz fit (10^-4 s-1); higher = faster ureolysis; extreme values may be limits of the assay. As to the method:
(§1)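 Klebsiella pneumoniae ATCC 13882 (start OD600 0.05) grown in M9U medium with 40 mM urea and phenol red plus inhibitor, in triplicate in 96-well plates. A557 and OD630 were read every 15 min for 24 h. Ureolysis was followed as the pH-related A557-A630: onset time, Gompertz-fit rate and final value. Growth was followed as OD630.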

Experiment [2] has the same test system. As to the kind of experiment: onset of ureolytic pH increase; higher = more delayed ureolysis (inhibition). Here is the method:
as §1

The test system is the same in experiment [3]. The experiment is described as follows: final OD630 (growth) after 24 h; higher = more bacterial growth; extreme values may be limits of the assay. As to the method: as §1
For experiment [4] the test system is unchanged. As to the kind of experiment: final pH-related absorbance (A557-A630) after 24 h (absorbance units); higher = more ureolysis; extreme values may be limits of the assay. Here is the method:
as §1

Consider `NC=O` [Formamide], for which the entries for the “rate of pH” value in experiment [1] (0.1 mM), in experiment [1] (1 mM) and in experiment [1] (10 mM) were 2.01 ± 0.1, 2.24 ± 0.1 and 2.188 ± 0.02, respectively. Further, the “onset of ureolytic pH increase” value worked out at 550 ± 22 min in experiment [2] (0.1 mM), 560 ± 15 min in experiment [2] (1 mM) and 572 ± 7.5 min in experiment [2] (10 mM). Moreover, the figures for the “final OD630” value in experiment [3] (0.1 mM), in experiment [3] (1 mM) and in experiment [3] (10 mM) were 0.513 ± 0.0092, 0.512 ± 0.0096 and 0.513 ± 0.008, respectively. Moreover, the “final pH-related absorbance” value in experiment [4] (0.1 mM) was determined as 0.168 ± 0.021; in experiment [4] (1 mM), 0.172 ± 0.027; in experiment [4] (10 mM), 0.165 ± 0.021.

In the case of `O=C(O)c1cc(O)c(O)c(O)c1` [Gallic acid monohydrate], the “rate of pH” value was 2.0688 ± 0.0018 in experiment [1] (0.056 mM) and 1.8 ± 0.028 in experiment [1] (0.56 mM). The figures for the “onset of ureolytic pH increase” value in experiment [2] (0.056 mM) and in experiment [2] (0.56 mM) were 562.9 ± 3.7 min and 617 ± 18 min, respectively. The “final OD630” value in experiment [3] (0.056 mM) was found to be 0.454 ± 0.007; in experiment [3] (0.56 mM), 0.45 ± 0.003. The “final pH-related absorbance” value is 0.19 ± 0.0003 in experiment [4] (0.056 mM) and 0.191 ± 0.028 in experiment [4] (0.56 mM).

On to `N=C(N)N` [Guanidine hydrochloride], for which the “rate of pH” value came out at 1.94 ± 0.086 in experiment [1] (0.1 mM), 2.02 ± 0.066 in experiment [1] (1 mM) and 2.03 ± 0.17 in experiment [1] (10 mM). Also, the “onset of ureolytic pH increase” value came to 433 ± 6.4 min in experiment [2] (0.1 mM), 425 ± 5.7 min in experiment [2] (1 mM) and 436 ± 12 min in experiment [2] (10 mM). Moreover, the results for the “final OD630” value in experiment [3] (0.1 mM), in experiment [3] (1 mM) and in experiment [3] (10 mM) were 0.498 ± 0.006, 0.505 ± 0.006 and 0.503 ± 0.004, respectively. The “final pH-related absorbance” value in experiment [4] (0.1 mM) worked out at 0.249 ± 0.007; in experiment [4] (1 mM), 0.27 ± 0.011; in experiment [4] (10 mM) it was 0.286 ± 0.009.

Consider `Oc1ccc(O)cc1` [Hydroquinone], for which the entries for the “rate of pH” value in experiment [1] (0.1 mM) and in experiment [1] (1 mM) were 1.78 ± 0.19 and 1.58 ± 0.096, respectively. The “onset of ureolytic pH increase” value in experiment [2] (0.1 mM) worked out at 680 ± 7.1 min; in experiment [2] (1 mM), 704 ± 40 min. Also, the “final OD630” value in experiment [3] (0.1 mM) amounted to 0.408 ± 0.021; in experiment [3] (1 mM) it was 0.423 ± 0.038. The “final pH-related absorbance” value worked out at 0.155 ± 0.0064 in experiment [4] (0.1 mM) and 0.157 ± 0.0044 in experiment [4] (1 mM).

For `NC(=O)NO` [Hydroxyurea], the “rate of pH” value in experiment [1] (0.1 mM) was 1.89 ± 0.32; in experiment [1] (1 mM), 1.01 ± 0.031; in experiment [1] (10 mM) it was 0. The “onset of ureolytic pH increase” value in experiment [2] (0.1 mM) was 436 ± 6.5 min; in experiment [2] (1 mM), 442 ± 25 min; in experiment [2] (10 mM), greater than 900 min. Further, the “final OD630” value was found to be 0.483 ± 0.006 in experiment [3] (0.1 mM), 0.452 ± 0.031 in experiment [3] (1 mM) and 0.262 ± 0.002 in experiment [3] (10 mM). Further, the results for the “final pH-related absorbance” value in experiment [4] (0.1 mM), in experiment [4] (1 mM) and in experiment [4] (10 mM) were 0.258 ± 0.007, 0.198 ± 0.029 and 0, respectively.

Turning to `c1c[nH]cn1` [Imidazole], the “rate of pH” value was 1.457 ± 0.0067 in experiment [1] (0.1 mM), 1.48 ± 0.046 in experiment [1] (1 mM) and 1.43 ± 0.029 in experiment [1] (10 mM). Besides, the “onset of ureolytic pH increase” value was 562.8 ± 3.5 min in experiment [2] (0.1 mM), 565 ± 7.1 min in experiment [2] (1 mM) and 619.4 ± 3.2 min in experiment [2] (10 mM). For the same compound, the “final OD630” value was 0.423 ± 0.0002 in experiment [3] (0.1 mM), 0.42 ± 0.0034 in experiment [3] (1 mM) and 0.439 ± 0.0039 in experiment [3] (10 mM). For the same compound, the “final pH-related absorbance” value is 0.163 ± 0.0003 in experiment [4] (0.1 mM), 0.164 ± 0.0067 in experiment [4] (1 mM) and 0.169 ± 0.0015 in experiment [4] (10 mM).

Turning to `O=C(O)CNCC(=O)O` [Iminodiacetic acid], the results for the “rate of pH” value in experiment [1] (0.008 mM), in experiment [1] (0.08 mM) and in experiment [1] (0.802 mM) were 2.086 ± 0.011, 2.13 ± 0.052 and 1.82 ± 0.045, respectively. Moreover, the “onset of ureolytic pH increase” value in experiment [2] (0.008 mM) came to 565.5 ± 3.2 min; in experiment [2] (0.08 mM), 562.6 ± 1.5 min; in experiment [2] (0.802 mM), 663 ± 19 min. Also, the “final OD630” value in experiment [3] (0.008 mM) was 0.44 ± 0.003; in experiment [3] (0.08 mM), 0.429 ± 0.003; in experiment [3] (0.802 mM), 0.373 ± 0.011. The “final pH-related absorbance” value was 0.184 ± 0.004 in experiment [4] (0.008 mM), 0.211 ± 0.017 in experiment [4] (0.08 mM) and 0.209 ± 0.007 in experiment [4] (0.802 mM).

Regarding `N=C(N)NCCC[C@H](N)C(=O)O` [L-arginine], the results for the “rate of pH” value in experiment [1] (0.094 mM), in experiment [1] (0.943 mM) and in experiment [1] (9.43 mM) were 1.72 ± 0.018, 1.69 ± 0.018 and 1.66 ± 0.021, respectively. Besides, the results for the “onset of ureolytic pH increase” value in experiment [2] (0.094 mM), in experiment [2] (0.943 mM) and in experiment [2] (9.43 mM) were 636.03 ± 0.24 min, 558.6 ± 4.4 min and 592.5 ± 2.5 min, respectively. In addition, the results for the “final OD630” value in experiment [3] (0.094 mM), in experiment [3] (0.943 mM) and in experiment [3] (9.43 mM) were 0.472 ± 0.003, 0.52 ± 0.0037 and 0.519 ± 0.0064, respectively. For the same compound, the “final pH-related absorbance” value came to 0.23 ± 0.0075 in experiment [4] (0.094 mM), 0.238 ± 0.0024 in experiment [4] (0.943 mM) and 0.307 ± 0.0066 in experiment [4] (9.43 mM).

Source of the values: the supplement of paper PMC7244745.
